Measurements: paper PMC2074379 (British Journal of Cancer, 1996)

Test system: serine carboxypeptidase
Experiment: Effect of PMSF on the in vitro metabolism of antagonist D in 2% mouse liver homogenate
Assay type: biochemical
Settings: antagonist D 100 µg in 1.0 ml 2% w/v mouse liver homogenate in PBS, 37°C; PMSF 0-2.5 mM preincubated 15 min at 23°C; HPLC; mean of two to four experiments
Text: British Journal of Cancer (1996) 73, 715-720 ? 1996 Stockton Press All rights reserved 0007-0920/96 $12.00 % Metabolism of the broad-spectrum neuropeptide growth factor antagonist: ID-Arg1, D-Phe5, D-Trp7'9, Leull"-substance P DA Jones', J Cummings', SP Langdon', AJ Maclellan', T Higgins2, E Rozengurt2 and JF Smyth' 'Imperial Cancer Research Fund, Medical Oncology Unit, Western General Hospital, Edinburgh EH4 2XU; 2Imperial Cancer Research Fund, PO Box 123, Lincoln's Inn Fields, London WC2A 3PX, UK. Summary Broad-spectrum neuropeptide growth factor antagonists, such as [D-Arg', D-Phe5, D-Trp7'9, Leu']substance P (antagonist D) and [Arg6, D-Trp7'9, NmePhe8]substance p(6- 11) (antagonist G), are currently being investigated as possible anti-tumour agents. These compounds are hoped to be effective against neuropeptide-driven cancers such as small-cell lung cancer. […] The in vitro metabolism of antagonist D has been characterised and the structures of two major metabolites have been elucidated by amino acid analysis and mass spectrometry. […] HPLC The HPLC system used consisted of two 510 HPLC pumps, a 712 WISP autosampler, a TCM column heater (all Waters, Northwich, UK) and a model 1046A fluorescence detector (Hewlett Packard, Walborn, Germany). […]

## O=S(=O)(F)Cc1ccccc1 [PMSF, phenylmethylsulfonylfluoride]
  PMSF concentration sufficient to cause almost complete arrest of the metabolism of antagonist D: 1.0 mM
